Columns and labels:
Assay in all cases: Test D controlled growth environment herbicide test, pre- and postemergence
Format in all cases: in vivo
[1] = system: foxtail, green (green foxtail, Setaria viridis)
Summary of the method: (§1)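 Rating is visual, 0–100 scale (100 = complete control), made against untreated plants 14–21 d after treatment in controlled growth conditions. Postemergence sprays went onto 1- to 4-leaf plants in peat medium; preemergence sprays onto silt loam after sowing; formulation included a surfactant.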

[2] = system: chickweed (common chickweed, Stellaria media)
Summary of the method: as §1

[3] = system: blackgrass (Alopecurus myosuroides)
Summary of the method: as §1

[4] = system: oilseed rape (Brassica napus)
Summary of the method: as §1

[5] = system: speedwell (bird's-eye speedwell, Veronica persica)
Summary of the method: as §1

[6] = system: ryegrass, Italian (Italian ryegrass, Lolium multiflorum)
Summary of the method: as §1

[7] = system: mustard, wild (wild mustard, Sinapis arvensis)
Summary of the method: as §1

[8] = system: deadnettle (henbit deadnettle, Lamium amplexicaule)
Summary of the method: as §1

[9] = system: bromegrass, downy (downy bromegrass, Bromus tectorum)
Summary of the method: as §1

[10] = system: wheat, spring (spring wheat, Triticum aestivum)
Summary of the method: as §1

[11] = system: Russian thistle (Salsola kali)
Summary of the method: as §1

[12] = system: wheat, winter (winter wheat, Triticum aestivum)
Summary of the method: as §1

[13] = system: oat, wild (wild oat, Avena fatua)
Summary of the method: as §1

[14] = Postemergence, 31 g ai/ha, scale 0 to 100 (0 no effect, 100 complete control)
[15] = Postemergence, 125 g ai/ha, visual rating on scale 0 (no effect) to 100 (complete control), 14 to 21 d
[16] = Postemergence, 250 g ai/ha, scale 0 to 100 (0 no effect, 100 complete control)
[17] = Preemergence, 125 g ai/ha, scale 0 to 100 (0 no effect, 100 complete control)
[18] = Preemergence, 250 g ai/ha, scale 0 to 100, 0 no effect, 100 complete control
[19] = postemergence, 62 g ai/ha, scale 0 to 100, 0 no effect, 100 complete control
[20] = Preemergence, 62 g ai/ha, scale 0 to 100 (0 no effect, 100 complete control)

Compound: CC(=O)Oc1c(C)nn(C)c(=O)c1-c1c(C)sc2ccc(Cl)cc12 [Compound 108]
- Foxtail, Green plant response rating [1, 14]: 65
- Plant response rating, Foxtail, Green [1, 15]: 75
- Plant response rating, Foxtail, Green [1, 16]: 95
- Plant response rating (scale of 0 to 100), Foxtail, Green ([1]; Preemergence, 31 g ai/ha): 30
- Plant response rating (scale of 0 to 100), Foxtail, Green ([1]; Preemergence, 62 g ai/ha): 90
- Plant response rating, Foxtail, Green [1, 17]: 100
- Plant response rating, Foxtail, Green [1, 18]: 100
- Plant response rating, Foxtail, Green [1, 19]: 70
- Chickweed plant response rating [2, 14]: 90
- Plant response rating, Chickweed [2, 15]: 100
- Plant response rating, Chickweed [2, 16]: 100
- Plant response rating (scale of 0 to 100), Chickweed ([2]; Preemergence, 31 g ai/ha): 100
- Plant response rating (scale of 0 to 100), Chickweed ([2]; Preemergence, 62 g ai/ha): 100
- Plant response rating, Chickweed [2, 17]: 100
- Plant response rating, Chickweed [2, 18]: 100
- Plant response rating, Chickweed [2, 19]: 100
- Blackgrass plant response rating [3, 14]: 20
- Plant response rating, Blackgrass [3, 15]: 65
- Plant response rating, Blackgrass [3, 16]: 75
- Plant response rating (scale of 0 to 100), Blackgrass ([3]; Preemergence, 31 g ai/ha): 15
- Plant response rating, Blackgrass [3, 20]: 35
- Plant response rating, Blackgrass [3, 17]: 50
- Plant response rating, Blackgrass [3, 18]: 80
- Plant response rating, Blackgrass [3, 19]: 45
- Oilseed Rape plant response rating [4, 14]: 45
- Plant response rating, Oilseed Rape [4, 15]: 75
- Plant response rating, Oilseed Rape [4, 16]: 100
- Plant response rating (scale of 0 to 100), Oilseed Rape ([4]; Preemergence, 31 g ai/ha): 20
- Plant response rating (scale of 0 to 100), Oilseed Rape ([4]; Preemergence, 62 g ai/ha): 45
- Plant response rating, Oilseed Rape [4, 17]: 75
- Plant response rating, Oilseed Rape [4, 18]: 40
- Plant response rating, Oilseed Rape [4, 19]: 70
- Speedwell plant response rating [5, 14]: 60
- Plant response rating, Speedwell [5, 15]: 70
- Plant response rating, Speedwell [5, 16]: 80
- Plant response rating, Speedwell [5, 19]: 65
- Ryegrass, Italian plant response rating [6, 14]: 90
- Plant response rating, Ryegrass, Italian [6, 15]: 95
- Plant response rating, Ryegrass, Italian [6, 16]: 100
- Plant response rating (scale of 0 to 100), Ryegrass, Italian ([6]; Preemergence, 31 g ai/ha): 80
- Plant response rating (scale of 0 to 100), Ryegrass, Italian ([6]; Preemergence, 62 g ai/ha): 98
- Plant response rating, Ryegrass, Italian [6, 17]: 100
- Plant response rating, Ryegrass, Italian [6, 18]: 100
- Plant response rating, Ryegrass, Italian [6, 19]: 90
- Mustard, Wild plant response rating [7, 14]: 70
- Plant response rating, Mustard, Wild [7, 15]: 95
- Plant response rating, Mustard, Wild [7, 16]: 100
- Plant response rating (scale of 0 to 100), Mustard, Wild ([7]; Preemergence, 31 g ai/ha): 5
- Plant response rating (scale of 0 to 100), Mustard, Wild ([7]; Preemergence, 62 g ai/ha): 60
- Plant response rating, Mustard, Wild [7, 17]: 95
- Plant response rating, Mustard, Wild [7, 18]: 85
- Plant response rating, Mustard, Wild [7, 19]: 75
- Deadnettle plant response rating [8, 14]: 35
- Plant response rating, Deadnettle [8, 15]: 75
- Plant response rating, Deadnettle [8, 16]: 90
- Plant response rating (scale of 0 to 100), Deadnettle ([8]; Preemergence, 31 g ai/ha): 0
- Plant response rating (scale of 0 to 100), Deadnettle ([8]; Preemergence, 62 g ai/ha): 25
- Plant response rating, Deadnettle [8, 17]: 95
- Plant response rating, Deadnettle [8, 18]: 100
- Plant response rating, Deadnettle [8, 19]: 50
- Bromegrass, Downy plant response rating [9, 14]: 25
- Plant response rating, Bromegrass, Downy [9, 15]: 40
- Plant response rating, Bromegrass, Downy [9, 16]: 65
- Plant response rating (scale of 0 to 100), Bromegrass, Downy ([9]; Preemergence, 31 g ai/ha): 25
- Plant response rating, Bromegrass, Downy [9, 20]: 25
- Plant response rating, Bromegrass, Downy [9, 17]: 70
- Plant response rating, Bromegrass, Downy [9, 18]: 75
- Plant response rating, Bromegrass, Downy [9, 19]: 30
- Wheat, Spring plant response rating [10, 14]: 15
- Plant response rating, Wheat, Spring [10, 15]: 20
- Plant response rating, Wheat, Spring [10, 16]: 30
- Plant response rating (scale of 0 to 100), Wheat, Spring ([10]; Preemergence, 31 g ai/ha): 0
- Plant response rating (scale of 0 to 100), Wheat, Spring ([10]; Preemergence, 62 g ai/ha): 20
- Plant response rating, Wheat, Spring [10, 17]: 25
- Plant response rating, Wheat, Spring [10, 18]: 40
- Plant response rating, Wheat, Spring [10, 19]: 20
- Russian Thistle plant response rating [11, 14]: 65
- Plant response rating, Russian Thistle [11, 15]: 75
- Plant response rating, Russian Thistle [11, 16]: 90
- Plant response rating (scale of 0 to 100), Russian Thistle ([11]; Preemergence, 31 g ai/ha): 0
- Plant response rating (scale of 0 to 100), Russian Thistle ([11]; Preemergence, 62 g ai/ha): 15
- Plant response rating, Russian Thistle [11, 17]: 70
- Plant response rating, Russian Thistle [11, 18]: 100
- Plant response rating, Russian Thistle [11, 19]: 70
- Wheat, Winter plant response rating [12, 14]: 10
- Plant response rating, Wheat, Winter [12, 15]: 20
- Plant response rating, Wheat, Winter [12, 16]: 20
- Plant response rating (scale of 0 to 100), Wheat, Winter ([12]; Preemergence, 31 g ai/ha): 0
- Plant response rating (scale of 0 to 100), Wheat, Winter ([12]; Preemergence, 62 g ai/ha): 0
- Plant response rating, Wheat, Winter [12, 17]: 10
- Plant response rating, Wheat, Winter [12, 18]: 30
- Plant response rating, Wheat, Winter [12, 19]: 15
- Oat, Wild plant response rating [13, 14]: 85
- Plant response rating, Oat, Wild [13, 15]: 100
- Plant response rating, Oat, Wild [13, 16]: 100
- Plant response rating (scale of 0 to 100), Oat, Wild ([13]; Preemergence, 31 g ai/ha): 80
- Plant response rating (scale of 0 to 100), Oat, Wild ([13]; Preemergence, 62 g ai/ha): 80
- Plant response rating, Oat, Wild [13, 17]: 80
- Plant response rating, Oat, Wild [13, 18]: 95
- Plant response rating, Oat, Wild [13, 19]: 95

From patent US10597388B2, “Pyridazinone herbicides” (FMC CORPORATION, priority 2014, dated 2020)
